From PubChem BioAssay AID2060903 (Molecular Pharmacology Branch, DTP, NCI, 2025)
“And” between values parts separate entries of the source, which are not always exact repeats. Equal values may be shown once.

Test system: 377384-186-R-J1-PDC complex spheroid viability
Assay: Anticancer human tumor 377384-186-R-J1-PDC patient-derived pancreatic carcinoma cell line growth inhibition [RAS]
Settings: for viability, T/C: stronger effect = lower value
Description: RAS pathway inhibitors in Combinations in Complex Spheroids
A high-throughput screen of multi-cell type tumor spheroids was designed to identify active combinations of RAS pathway inhibitors and targeted small molecules. Complex spheroids include a stromal component modeled by human endothelial cells (HUVEC) and fibroblasts modeled by human mesenchymal stem cells (MSCs). The concentration ranges selected for each drug and investigational agent were based upon clinically achievable concentrations if the clinical Cmax of the agent was known.
Compounds. The drugs and investigational agents: abemaciclib (NSC768073), cobimetinib (NSC768068), divarasib (GDC6063, NSC841802), docetaxel (NSC628503), GDC-1971 (RLY-1971, NSC841576), gemcitabine (NSC613327), inavolisib (NSC800729), ipatasertib (NSC767898), KB-0742 (NSC834161), MRTX-1133 (NSC836407), osimertinib (NSC779217), RMC-4630 (NSC839698), RMC-6236 (NSC851965), RMC-6291 (NSC852671), Ro-3306 (NSC812927), sapanisertib (NSC764658), SN-38 (NSC673596), staurosporine (NSC755774), SY5609 (NSC837396), and tovorafenib (DAY101, NSC766906), were obtained from the National Cancer Institute (NCI) Developmental Therapeutics Program Chemical Repository. The FDA-approved anticancer drug set is available from the NCI Developmental Therapeutics Program. […] The stock solutions were prepared in dimethyl sulfoxide (DMSO, Sigma-Aldrich, St. Louis, MO, cat. D2650) at 800-fold the tested concentration and stored at -70 degrees C prior to their use. All drugs and investigational agents were tested over a range starting from a high concentration at or near the clinical Cmax and decreasing in half-log increments. If the clinical Cmax for an agent had not been determined, the highest concentration tested was 10 microM.
Cell Culture. All cells were maintained in an incubator at 37 degrees C and 5% CO2 with 95% humidity. The PDC lines were cultured according to standard operating procedures established by the NCI PDMR. All PDCs were thawed and cultured in Matrigel-coated flasks prepared with a working solution of 1X Ham's F-12 nutrient mix, without supplementation (Invitrogen, Waltham, MA, cat. 11765054), 100 U/mL penicillin-streptomycin (Invitrogen, cat. 15140122), and 2.5% Matrigel (Corning Inc., Corning, NY, cat. 354248) for the first three passages. The 362531-283-R-J2-PDC and 782815-120-R-J1-PDC lines were cultured in 6C/Colon 1B media, which includes advanced DMEM/F-12 (Thermo Fisher Scientific, cat. 12634028), 10 mM HEPES (Thermo Fisher Scientific, cat. 15630080), 1X GlutaMAX supplement (Thermo Fisher Scientific, cat. 35050061), 0.1 mg/mL primocin (InvivoGen, San Diego, CA, cat. ant-pm-2), 10% defined fetal bovine serum, heat inactivated (HyClone Laboratories Inc., Logan, UT, cat. SH30070.03HI), 50% L-WRN conditioned media (ATCC, cat. CRL-3276), 1.25 mM N-Acetyl-L-cysteine (Sigma-Aldrich, cat. A9165), 10 mM nicotinamide (Sigma-Aldrich, cat. N0636), 1X B-27 supplement (Thermo Fisher Scientific, cat. 17504044), 1X N-2 supplement (Thermo Fisher Scientific, cat. 17502048), 50 ng/mL human EGF (Thermo Fisher Scientific, cat. PHG0311), and 10 microM Y-27632 dihydrochloride (Tocris Bioscience, cat. 1254). The K12877-001-R-J1-PDC line was cultured in 6I media, which includes all 6C/Colon 1B media plus 10 ng/mL human FGF-10 (PeproTech, cat. 100-26), 1 ng/mL human FGF-2 (PeproTech, cat. 100-18B), 1 µM prostaglandin E2 (Tocris Bioscience, cat. 2296), […] hydrocortisone (Sigma-Aldrich, cat. H4001), and […] bovine insulin (Sigma-Aldrich, cat. I6634). The K86415-001-R-J1-PDC line was cultured in 6D media, which includes all 6C/Colon 1B media components minus the L-WRN conditioned media. The 485176-168-R4-J1-PDC was cultured in PANC media, which includes all 6C/Colon 1B media plus 100 ng/mL human FGF-10 (PeproTech, cat. 100-26), 500 nM SB-431542 (Selleckchem, cat. S1067), and 10 nM gastrin (Tocris Bioscience, cat. 3006). […]

[1] = compound alone, run of 09/09/2024
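Further: spheroids exposed to compounds for seven days before readout.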

Row | IC50 (curve of compound) | SMILES | viability, T/C (compound 0.0316 µM) | viability, T/C (compound 0.1 µM) | viability, T/C (compound 0.316 µM) | viability, T/C (compound 1 µM) | viability, T/C (compound 3.16 µM) | viability, T/C (compound 10 µM) | viability, T/C (compound 0.00316 µM) | viability, T/C (compound 0.01 µM) | other results
1 | – | C#Cc1c(F)ccc2cc(O)cc(-c3ncc4c(N5CC6CCC(C5)N6)nc(OCC56CCCN5CC(F)C6)nc4c3F)c12 (stereo not given) | 25.6% [middle of 8 runs] | 11.4% [middle of 8 runs] | 4.64% [middle of 8 runs] | 3.15% [middle of 8 runs] | 2.31% [middle of 8 runs] | 1.33% [middle of 8 runs] | – | – | IC50 [1]: < 0.0316 µM
2 | > 1 µM | C=CC(=O)N1CCN(c2nc(OCC3CCCN3C)nc3c(F)c(-c4nc(N)cc(C)c4C(F)(F)F)c(Cl)cc23)C(C)C1 (stereo not given) | 95.5% [middle of 12 runs] | – | – | 96.5% [middle of 12 runs] | – | – | 96.1% [middle of 12 runs] | – | IC50 [1]: > 1 µM
3 | 639 nM [middle of 4 runs] | C=CC(=O)Nc1cc(Nc2nccc(-c3cn(C)c4ccccc34)n2)c(OC)cc1N(C)CCN(C)C | 92.6% [middle of 4 runs] | 87.7% [middle of 4 runs] | 64.9% [middle of 4 runs] | 40.4% [middle of 4 runs] | – | – | 95.6% [middle of 4 runs] | 97.8% [middle of 4 runs] | –
4 | – | CC(C)n1nc(-c2ccc3oc(N)nc3c2)c2c(N)ncnc21 | 34.8% [middle of 4 runs] | – | – | – | – | – | 69% [middle of 4 runs] | 61.9% [middle of 4 runs] | viability, T/C (compound 0.001 µM): 80.6% [middle of 4 runs]
5 | 476 nM [middle of 4 runs] | CC(Nc1ccc2c(c1)OCCn1cc(N3C(=O)OCC3C(F)F)nc1-2)C(N)=O (stereo not given) | 76% [middle of 4 runs] | 63.8% [middle of 4 runs] | 55.8% [middle of 4 runs] | 47.9% and 40.3% (2×) and 48.2% | 33.7% [middle of 4 runs] | 30.7% [middle of 4 runs] | – | – | –
6 | 4.35 nM [middle of 4 runs] | CC1(C)CCC(Nc2ncc(C(F)(F)F)c(-c3c[nH]c4c(P(C)(C)=O)c(C#N)ccc34)n2)CN1 (stereo not given) | – | – | – | – | – | – | – | – | viability, T/C (compound 0.000949 µM): 84% [middle of 4 runs]; viability, T/C (compound 0.003 µM): 59.5% [middle of 4 runs]; viability, T/C (compound 0.00949 µM): 30% [middle of 4 runs]; viability, T/C (compound 0.03 µM): 21.3% [middle of 4 runs]; viability, T/C (compound 0.0949 µM): 16.6% [middle of 4 runs]; viability, T/C (compound 0.3 µM): 16.1% [middle of 4 runs]
7 | 100 nM [middle of 4 runs] | CC1(O)CCCC1n1c(=O)c(C(F)F)cc2cnc(NC3CCN(S(C)(=O)=O)CC3)nc21 (stereo not given) | 77.2% [middle of 4 runs] | 50% [middle of 4 runs] | 21.1% [middle of 4 runs] | 25.5% [middle of 4 runs] | 34.8% [middle of 4 runs] | 6.6% [middle of 4 runs] | – | – | –
8 | 1.68 µM [middle of 4 runs] | CCC(CC)c1cc(NC2CCC(N)C2)n2nccc2n1 (stereo not given) | 100% [middle of 4 runs] | 105% [middle of 4 runs] | 105% [middle of 4 runs] | – | 3.17% [middle of 4 runs] | 4.82% [middle of 4 runs] | – | – | –
9 | 194 nM [middle of 4 runs] | CCN1CCN(Cc2ccc(Nc3ncc(F)c(-c4cc(F)c5nc(C)n(C(C)C)c5c4)n3)nc2)CC1 | 70.3% [middle of 4 runs] | 60% [middle of 4 runs] | 44.2% [middle of 4 runs] | 38% [middle of 4 runs] | – | – | 98.7% [middle of 4 runs] | 79.1% [middle of 4 runs] | –
10 | 1.8 nM [middle of 4 runs] | CCc1c2c(nc3ccc(O)cc13)-c1cc3c(c(=O)n1C2)COC(=O)[C@]3(O)CC | – | – | – | – | – | – | – | – | viability, T/C (compound 0.000949 µM): 69.8% [middle of 4 runs]; viability, T/C (compound 0.003 µM): 35% [middle of 4 runs]; viability, T/C (compound 0.00949 µM): 16.7% [middle of 4 runs]; viability, T/C (compound 0.03 µM): 7.4% [middle of 4 runs]; viability, T/C (compound 0.0949 µM): 2.65% [middle of 4 runs]; viability, T/C (compound 0.3 µM): 2.02% [middle of 4 runs]
11 | – | CCn1c(-c2cc(N3CCN(C)CC3)cnc2C(C)OC)c2c3cc(ccc31)-c1csc(n1)CC(NC(=O)C1CC1C)C(=O)N1CCCC(N1)C(=O)OCC(C)(C)C2 (stereo not given) | – | – | – | – | – | – | – | – | viability, T/C (compound 0.000949 µM): 51.8% [middle of 8 runs]; viability, T/C (compound 0.003 µM): 21.4% [middle of 8 runs]; viability, T/C (compound 0.00949 µM): 5.65% [middle of 8 runs]; viability, T/C (compound 0.03 µM): 2.68% [middle of 8 runs]; viability, T/C (compound 0.0949 µM): 2.25% [middle of 8 runs]; viability, T/C (compound 0.3 µM): 1.95% [middle of 7 runs]
12 | – | CCn1c(-c2cccnc2C(C)OC)c2c3cc(ccc31)N1CCOC(CC(NC(=O)C(C(C)C)N(C)C(=O)C3(F)CCN(C(=O)C#CC(C)(C)N(C)C)CC3)C(=O)N3CCCC(N3)C(=O)OCC(C)(C)C2)C1 (stereo not given) | – | – | – | – | – | – | – | – | viability, T/C (compound 0.000949 µM): 105% [middle of 8 runs]; viability, T/C (compound 0.003 µM): 109% [middle of 8 runs]; viability, T/C (compound 0.03 µM): 99.3% [middle of 8 runs]; viability, T/C (compound 0.0949 µM): 99.5% [middle of 8 runs]; viability, T/C (compound 0.3 µM): 88% [middle of 8 runs]; IC50 (compound alone, run of 08/20/2024): > 0.3 µM
13 | > 10 µM | C[C@@H](NC(=O)c1ncnc(N)c1Cl)c1ncc(C(=O)Nc2cc(C(F)(F)F)c(Cl)cn2)s1 | 95.1% [middle of 4 runs] | 99.2% [middle of 4 runs] | – | 117% (2×) and 109% and 132% | – | – | – | – | –
14 | > 10 µM | Cc1nc(N2CCC3(CC2)COC(C)C3N)c(CO)nc1Sc1ccnc(N)c1Cl (stereo not given) | 92% [middle of 4 runs] | 85.4% [middle of 4 runs] | 83.3% [middle of 4 runs] | 85.2% [middle of 4 runs] | 84.6% [middle of 4 runs] | 79% [middle of 4 runs] | – | – | –
15 | 6.44 nM [middle of 4 runs] | Nc1ccn(C2OC(CO)C(O)C2(F)F)c(=O)n1 (stereo not given) | 21.4% and 7.24% and 10.1% (2×) | 5.39% [middle of 4 runs] | 4.06% [middle of 4 runs] | 3.19% [middle of 4 runs] | – | – | – | 36.6% [middle of 4 runs] | –
16 | 39.2 nM [middle of 4 runs] | O=C(c1ccc(F)c(F)c1Nc1ccc(I)cc1F)N1CC(O)([C@@H]2CCCCN2)C1 | 56.3% [middle of 4 runs] | 21.3% (2×) and 13.7% and 21.1% | 2.49% [middle of 4 runs] | 0.68% [middle of 4 runs] | – | – | 85.8% [middle of 4 runs] | 79.5% [middle of 4 runs] | –
